Assay results taken from ChEMBL document CHEMBL5046286, “Discovery of MAP855, an Efficacious and Selective MEK1/2 Inhibitor with an ATP-Competitive Mode of Action” (J Med Chem, 2022).
Values after ≈ are worked out from the molar mass of the structure shown. Active and inactive are the calls of the source. The rule behind the calls is not given here.

Tests used:
[1] = Permeability in PBS at pH 6.8 incubated for 5 hrs by PAMPA method; assay type: ADME; conditions: pH 6.8, 5 h
[2] = Solubility of compound in water at pH 6.8 by shake flask method based HPLC/UV analysis; assay type: physicochemical
[3] = Octanol-water partition coefficient, logP of the compound by LC-MS analysis; assay type: physicochemical
[4] = Dissociation constant, pKa of compound; assay type: physicochemical
[5] = Solubility of compound in FaSSIF at pH 6.8 by shake flask method based HPLC/UV analysis; assay type: physicochemical
[6] = target: T1, Dual specificity mitogen-activated protein kinase kinase 1 (Homo sapiens, UniProt Q02750); test: Inhibition of full-length human MEK1 by TR-FRET assay
T1 sequence (Q02750 whole entry): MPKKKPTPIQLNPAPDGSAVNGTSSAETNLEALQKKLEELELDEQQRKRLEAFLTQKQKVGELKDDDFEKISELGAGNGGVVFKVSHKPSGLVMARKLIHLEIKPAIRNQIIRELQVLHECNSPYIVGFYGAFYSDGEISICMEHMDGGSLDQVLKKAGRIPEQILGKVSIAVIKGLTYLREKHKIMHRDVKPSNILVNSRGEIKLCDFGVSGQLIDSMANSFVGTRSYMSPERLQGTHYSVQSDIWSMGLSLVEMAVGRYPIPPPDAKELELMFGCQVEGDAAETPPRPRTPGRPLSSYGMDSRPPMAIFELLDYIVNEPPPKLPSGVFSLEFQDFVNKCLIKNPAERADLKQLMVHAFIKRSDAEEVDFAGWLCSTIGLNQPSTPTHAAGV

[7] = Inhibition of ERK phosphorylation in human A-375 cells incubated for 3 hrs by DELFIA assay; assay type: cell-based; conditions: A-375, 3 h
Cytochrome P450 3A4 = Cytochrome P450 3A4 (Homo sapiens, UniProt P08684); test: Inhibition of CYP3A4 (unknown origin); assay type: ADME
Cytochrome P450 3A4, sequence (P08684 whole entry): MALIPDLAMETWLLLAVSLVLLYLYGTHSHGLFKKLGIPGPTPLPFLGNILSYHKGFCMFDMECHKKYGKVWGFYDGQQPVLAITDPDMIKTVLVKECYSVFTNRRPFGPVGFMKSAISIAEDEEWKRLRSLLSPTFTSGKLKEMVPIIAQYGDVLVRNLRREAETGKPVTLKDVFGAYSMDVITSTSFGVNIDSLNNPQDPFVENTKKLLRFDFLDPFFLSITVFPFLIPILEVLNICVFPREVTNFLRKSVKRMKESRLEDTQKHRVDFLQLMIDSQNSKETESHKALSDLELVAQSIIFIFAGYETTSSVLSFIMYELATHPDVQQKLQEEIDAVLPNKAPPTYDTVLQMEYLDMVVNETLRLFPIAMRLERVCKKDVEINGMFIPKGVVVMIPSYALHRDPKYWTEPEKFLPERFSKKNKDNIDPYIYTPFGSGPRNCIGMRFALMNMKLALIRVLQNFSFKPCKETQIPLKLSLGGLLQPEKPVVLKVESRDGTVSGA

[8] = Clearance in Wistar rat at 3 mg/kg, iv measured up to 24 hrs by LC-MS/MS analysis; assay type: ADME, organism-based; conditions: in vivo
[9] = Oral bioavailability in Wistar rat at 10 mg/kg measured up to 24 hrs by LC-MS/MS analysis; assay type: ADME, organism-based; conditions: in vivo; for bioavailability: Wistar
[10] = Protein binding in human plasma assessed as free fraction; assay type: ADME, cell-free
A-375 = test: Antitumor activity against human A-375 cells xenografted in CD1 mouse assessed as tumor growth inhibition at 30 mg/kg bid via oral gavage; assay type: functional; conditions: A-375, po, read-out: TGI
[11] = target: High affinity nerve growth factor receptor (Homo sapiens, UniProt P04629); test: Inhibition of wild-type human partial length TRKA (G475 to G790 residues) expressed in mammalian expression system by Kinomescan method
High affinity nerve growth factor receptor, sequence (P04629 whole entry, the tested form may be a part): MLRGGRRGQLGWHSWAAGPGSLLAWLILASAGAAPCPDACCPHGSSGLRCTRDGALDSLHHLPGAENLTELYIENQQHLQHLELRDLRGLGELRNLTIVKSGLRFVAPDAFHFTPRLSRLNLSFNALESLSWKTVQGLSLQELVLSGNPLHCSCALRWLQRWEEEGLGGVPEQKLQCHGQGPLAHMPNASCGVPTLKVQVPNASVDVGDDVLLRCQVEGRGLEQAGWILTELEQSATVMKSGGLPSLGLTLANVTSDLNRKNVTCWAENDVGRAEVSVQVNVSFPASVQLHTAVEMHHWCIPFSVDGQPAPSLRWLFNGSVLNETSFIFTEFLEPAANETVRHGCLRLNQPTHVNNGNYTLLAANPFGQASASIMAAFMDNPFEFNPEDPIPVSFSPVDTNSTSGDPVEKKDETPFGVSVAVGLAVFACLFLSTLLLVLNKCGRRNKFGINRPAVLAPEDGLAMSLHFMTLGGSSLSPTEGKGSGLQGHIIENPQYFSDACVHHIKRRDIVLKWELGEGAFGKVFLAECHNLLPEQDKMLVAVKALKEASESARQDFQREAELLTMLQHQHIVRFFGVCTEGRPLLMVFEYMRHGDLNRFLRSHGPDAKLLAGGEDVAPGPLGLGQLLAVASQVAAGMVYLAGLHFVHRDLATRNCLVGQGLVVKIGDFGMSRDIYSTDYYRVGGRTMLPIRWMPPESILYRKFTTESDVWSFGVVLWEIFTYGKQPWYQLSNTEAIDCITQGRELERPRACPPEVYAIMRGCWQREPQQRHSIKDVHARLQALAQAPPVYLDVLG

Mus musculus [12] = test: In vivo inhibition of ERK phosphorylation in human A-375 cells xenografted CD1 mouse at 30 mg/kg bid via oral gavage measured after 8 hrs by ELISA method; assay type: functional, organism-based
Mus musculus [13] = test: In vivo inhibition of MEK phosphorylation in human A-375 cells xenografted CD1 mouse at 30 mg/kg bid via oral gavage measured after 8 hrs by ELISA method; assay type: functional, organism-based
Mus musculus [14] = test: In vivo inhibition of DUSP6 in human A-375 cells xenografted CD1 mouse at 30 mg/kg bid via oral gavage measured after 8 hrs by RT-PCR method; assay type: functional, organism-based
Mus musculus [15] = test: In vivo inhibition of SPRY4 in human A-375 cells xenografted CD1 mouse at 30 mg/kg bid via oral gavage measured after 8 hrs by RT-PCR method; assay type: functional, organism-based
[16] = Toxicity in CD1 mouse xenografted with human A-375 cells assessed as body weight loss at 30 mg/kg bid via oral gavage; assay type: organism-based; conditions: in vivo
[17] = Volume of distribution at steady state in CD1 mouse at 3 mg/kg, iv measured up to 24 hrs by LC-MS/MS analysis; assay type: ADME, organism-based; conditions: in vivo, read-out: Vdss
[18] = AUC in CD1 mouse at 10 mg/kg, po measured up to 24 hrs by LC-MS/MS analysis; assay type: ADME, organism-based; design: route oral, dose 10 mg/kg, time <=24; conditions: in vivo
[19] = Oral bioavailability in CD1 mouse at 10 mg/kg measured up to 24 hrs by LC-MS/MS analysis; assay type: ADME, organism-based; conditions: in vivo
[20] = Volume of distribution at steady state in Wistar rat at 3 mg/kg, iv measured up to 24 hrs by LC-MS/MS analysis; assay type: ADME, organism-based; conditions: in vivo, read-out: Vdss
[21] = AUC in Wistar rat at 10 mg/kg, po measured up to 24 hrs by LC-MS/MS analysis; assay type: ADME, organism-based; design: route oral, dose 10 mg/kg, time <=24; conditions: in vivo
[22] = Volume of distribution at steady state in Beagle dog at 3 mg/kg, iv measured up to 24 hrs by LC-MS/MS analysis; assay type: ADME, organism-based, Canis lupus familiaris; conditions: in vivo, read-out: Vdss
[23] = AUC in Beagle dog at 10 mg/kg, po measured up to 24 hrs by LC-MS/MS analysis; assay type: ADME, organism-based, Canis lupus familiaris; design: route oral, dose 10 mg/kg, time <=24; conditions: in vivo
[24] = Oral bioavailability in Beagle dog at 10 mg/kg measured up to 24 hrs by LC-MS/MS analysis; assay type: ADME, organism-based, Canis lupus familiaris; conditions: in vivo
[25] = target: Mitogen-activated protein kinase 1 (Homo sapiens) (UniProt P28482); test: Inhibition of full length human ERK2 using LCB-FFKNIVTPRTPPP as substrate preincubated for 45 mins followed by substrate addition and measured after 90 mins; conditions: time 135.0 min
Mitogen-activated protein kinase 1 (Homo sapiens), sequence (P28482 whole entry): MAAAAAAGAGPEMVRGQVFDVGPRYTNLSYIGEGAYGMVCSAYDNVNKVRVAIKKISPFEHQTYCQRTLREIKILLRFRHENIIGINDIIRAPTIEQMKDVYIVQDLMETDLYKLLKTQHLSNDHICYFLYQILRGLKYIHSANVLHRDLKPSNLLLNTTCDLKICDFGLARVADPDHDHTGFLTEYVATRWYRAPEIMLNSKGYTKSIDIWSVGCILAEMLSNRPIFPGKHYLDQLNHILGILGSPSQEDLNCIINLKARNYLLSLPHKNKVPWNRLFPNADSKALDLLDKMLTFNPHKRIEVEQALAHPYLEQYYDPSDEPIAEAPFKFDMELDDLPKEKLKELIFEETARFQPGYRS

[26] = test system: Serine/threonine-protein kinase B-raf (Homo sapiens), P15056 [V600E]; test: Inhibition of full length human BRAF V599E mutant using LCB-FFKNIVTPRTPPP as substrate preincubated for 45 mins followed by substrate addition and measured after 90 mins; conditions: time 135.0 min
Serine/threonine-protein kinase B-raf (Homo sapiens), P15056 [V600E], sequence (P15056 whole entry V600E): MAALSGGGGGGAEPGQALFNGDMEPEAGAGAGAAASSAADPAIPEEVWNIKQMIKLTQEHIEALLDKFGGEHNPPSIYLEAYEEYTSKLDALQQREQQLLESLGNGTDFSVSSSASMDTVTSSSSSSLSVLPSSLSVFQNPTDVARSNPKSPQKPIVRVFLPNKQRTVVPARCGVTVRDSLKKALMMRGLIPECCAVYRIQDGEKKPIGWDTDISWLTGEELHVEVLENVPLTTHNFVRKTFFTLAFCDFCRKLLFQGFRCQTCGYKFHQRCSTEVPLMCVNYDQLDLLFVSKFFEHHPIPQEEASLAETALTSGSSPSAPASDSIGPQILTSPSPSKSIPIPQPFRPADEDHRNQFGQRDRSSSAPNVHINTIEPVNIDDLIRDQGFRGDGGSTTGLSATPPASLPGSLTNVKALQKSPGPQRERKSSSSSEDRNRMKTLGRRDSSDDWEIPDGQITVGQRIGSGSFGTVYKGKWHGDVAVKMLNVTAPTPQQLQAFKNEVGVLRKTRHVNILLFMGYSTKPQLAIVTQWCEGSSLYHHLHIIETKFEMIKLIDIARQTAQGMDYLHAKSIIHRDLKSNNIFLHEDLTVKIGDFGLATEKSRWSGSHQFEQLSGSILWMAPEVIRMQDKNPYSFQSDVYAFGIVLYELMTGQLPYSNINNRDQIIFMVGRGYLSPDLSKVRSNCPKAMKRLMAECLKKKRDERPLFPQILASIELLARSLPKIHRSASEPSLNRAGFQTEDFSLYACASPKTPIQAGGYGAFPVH

[27] = target: T1, Dual specificity mitogen-activated protein kinase kinase 1; conditions: time 120.0 min
[28] = Clearence in CD-1 mouse at 3 mg/kg, iv; assay type: ADME, organism-based; conditions: in vivo

log(permeability) [1] | solubility thermodynamic [2] [µM] | logP [3] | solubility thermodynamic [5] [µM] | IC50 (Cytochrome P450 3A4) [nM] | SMILES | other results
-4.4 | 67 (≈ 34.7 µg/mL) | 4.6 |  |  | OCCN1CCC(n2cnc3cnc4cc(F)c(-c5ccc(Oc6ccccn6)cc5Cl)cc4c32)CC1 | pKa [4]: 6.9
-4.2 |  | 5.3 |  |  | COc1cc(Oc2ccccn2)ccc1-c1cc2c(cc1F)ncc1ncn(C3CCN(CC#N)CC3)c12 | 
-3.9 | < 4 | 4.6 | 22 (≈ 11.5 µg/mL) |  | COc1cc(Oc2ccccn2)ccc1-c1cc2c(cc1F)ncc1nc(C)n(C3CCN(CC#N)CC3)c12 | 
 |  |  |  | 12100 | Cc1nc2cnc3cc(F)c(-c4ccc(Oc5ncccn5)cc4Cl)cc3c2n1[C@H]1CC[C@](N)(CC#N)CC1 | 
 |  | 2 |  | 11000 | Cc1nc2cnc3cc(F)c(-c4ccc(Oc5ncccn5)cc4Cl)cc3c2n1C1CCN(C(=O)CO)CC1 | EC50 [7]: 50000 nM; fraction unbound [10]: 0.05; inhibition in vivo at 30 mg/kg (A-375): 41%; clearance [8]: 34 mL/min/kg; bioavailability [9]: 37%
-4.5 | 33 (≈ 17.3 µg/mL) | 2.3 | 221 (≈ 116 µg/mL) |  | COc1cc(Oc2ncccn2)ccc1-c1cc2c(cc1F)ncc1nc(C)n(C3CCN(CC#N)CC3)c12 | 
 |  | 5.7 |  | 5700 | N#CC[C@]1(N)CC[C@@H](n2cnc3cnc4cc(F)c(-c5ccc(Oc6ncccn6)cc5Cl)cc4c32)CC1 | 
 |  | 1.6 |  | 7700 | Cc1nc2cnc3cc(F)c(-c4ccc(Oc5ncccn5)cc4Cl)cc3c2n1[C@H]1CCN(C(=O)CO)C[C@@H]1F | EC50 [7]: 5000 nM; IC50 [11]: 25 nM; F ([9]; 10 mg/kg, 24 h): 65%; Activity (Mus musculus [12]): Active; Activity (Mus musculus [13]): Active; Activity (Mus musculus [14]): Active; Activity (Mus musculus [15]): Active; Activity [16]: Non-Toxic; Vd [17]: 2.6 L/kg; AUC [18]: 0.4 µM·h; F [19]: 44%; Vd [20]: 2 L/kg; AUC [21]: 0.6 µM·h; Vd [22]: 1.8 L/kg; AUC [23]: 1.4 µM·h; F [24]: 100%; inhibition [25]: inactive; inhibition [26]: inactive; T1/2 [27]: 1.62 h
-4.1 | < 4 | 5.1 | 175 (≈ 92.2 µg/mL) |  | Cc1nc2cnc3cc(F)c(-c4ccc(Oc5ccccn5)cc4Cl)cc3c2n1C1CCN(CC#N)CC1 | 
 |  | 4.2 |  | 1500 | CC1(n2cnc3cnc4cc(F)c(-c5ccc(Oc6ncccn6)cc5Cl)cc4c32)CCN(CC#N)CC1 | IC50 [7]: 80 nM; clearance [28]: 35 mL/min/kg
 |  | 2.3 |  | > 20000 | O=C(CO)N1CC[C@H](n2cnc3cnc4cc(F)c(-c5ccc(Oc6ncccn6)cc5Cl)cc4c32)[C@@H](F)C1 | 
 |  | 4.6 |  | < 500 | CC1(n2cnc3cnc4cc(F)c(-c5ccc(Oc6ncccn6)cc5Cl)cc4c32)CCC(CC#N)CC1 (stereo not drawn) | clearance [28]: 6 mL/min/kg

The next lines start with the compound.

SMILES | log(permeability) [1] | solubility thermodynamic [2] [µM] | logP [3] | solubility thermodynamic [5] [µM] | IC50 (Cytochrome P450 3A4) [nM] | other results
Fc1cc2ncc3ncn(C4CCNCC4)c3c2cc1-c1ccc(Oc2ccccn2)cc1Cl | -4.5 | 47 (≈ 22.3 µg/mL) | 4.8 |  |  | pKa [4]: 8.4
COc1cc(Oc2ccccn2)ccc1-c1cc2c(cc1F)ncc1nc(CO)n(C3CCN(CC#N)CC3)c12 | -5 | < 4 | 4.4 | 7 (≈ 3.77 µg/mL) |  | 
N#CCN1CCC(n2cnc3cnc4cc(F)c(-c5ccc(Oc6ncccn6)cc5Cl)cc4c32)CC1 | -4.5 |  | 3 |  |  | 
N#CCN1CCC(n2cnc3cnc4cc(F)c(-c5ccc(Oc6ccccn6)cc5Cl)cc4c32)CC1 | -4.2 |  | 5.3 |  |  | IC50 [6]: 70 nM; EC50 [7]: 400 nM; pKa [4]: 4.1
Cc1nc2cnc3cc(F)c(-c4ccc(Oc5ncccn5)cc4Cl)cc3c2n1C1CCN(CC#N)CC1 | -4.7 | 11 (≈ 5.81 µg/mL) | 3.3 | 106 (≈ 56 µg/mL) | 1600 | IC50 [7]: 60 nM; clearance [8]: 16 mL/min/kg; bioavailability [9]: 0%
CC(=O)N1CC[C@H](n2c(C)nc3cnc4cc(F)c(-c5ccc(Oc6ncccn6)cc5Cl)cc4c32)[C@@H](F)C1 |  |  |  |  |  | EC50 [7]: 64000 nM
N#CCN1CCC(n2c(CO)nc3cnc4cc(F)c(-c5ccc(Oc6ncccn6)cc5Cl)cc4c32)CC1 | -5.3 | 12 (≈ 6.53 µg/mL) | 3.5 | 6 (≈ 3.26 µg/mL) |  | 
Cc1cc(Oc2ncccn2)ccc1-c1cc2c(cc1F)ncc1nc(C)n([C@H]3CCN(C(=O)CO)C[C@@H]3F)c12 |  |  | 2 |  | > 20000 | EC50 [7]: 19000 nM
Cc1ccnc(Oc2ccc(-c3cc4c(cc3F)ncc3nc(C)n([C@H]5CCN(C(=O)CO)C[C@@H]5F)c34)c(Cl)c2)n1 |  |  | 2.6 |  | 2000 | EC50 [7]: 7000 nM
COc1cc(Oc2ccccn2)ccc1-c1cc2c(cc1F)ncc1nc(C(C)O)n(C3CCN(CC#N)CC3)c12 (stereo not drawn) | -4.6 | < 4 | 4.4 | 9 (≈ 4.97 µg/mL) |  | 
CC(O)c1nc2cnc3cc(F)c(-c4ccc(Oc5ccccn5)cc4Cl)cc3c2n1C1CCN(CC#N)CC1 (stereo not drawn) | -4.7 | < 4 |  | 22 (≈ 12.3 µg/mL) |  | 
N#CCc1ccc(-n2cnc3cnc4cc(F)c(-c5ccc6[nH]ccc6c5)cc4c32)cc1 |  |  |  |  |  | IC50 [6]: 2600 nM; EC50 [7]: 5800 nM
CC(O)c1nc2cnc3cc(F)c(-c4ccc(Oc5ncccn5)cc4Cl)cc3c2n1C1CCN(CC#N)CC1 (stereo not drawn) | -4.7 | < 4 |  | 22 (≈ 12.3 µg/mL) |  | 
COc1cc(Oc2ncccn2)ccc1-c1cc2c(cc1F)ncc1nc(C(C)O)n(C3CCN(CC#N)CC3)c12 (stereo not drawn) | -6.9 | 31 (≈ 17.2 µg/mL) | 3.2 | 42 (≈ 23.3 µg/mL) |  | 
CC(=O)Nc1cccc(-n2c(=O)n(C3CC3)c(=O)c3c(Nc4ccc(I)cc4F)n(C)c(=O)c(C)c32)c1 |  |  |  |  |  | T1/2 [27]: 0.417 h
Cc1nc2cnc3cc(F)c(-c4ccc(Oc5ncccn5)cc4Cl)cc3c2n1[C@H]1CC[C@@](N)(CC#N)CC1 |  |  | 1.2 |  | 1200 | 
N#CCN1CCN(n2cnc3cnc4cc(F)c(-c5ccc(Oc6ncccn6)cc5Cl)cc4c32)CC1 |  |  | 3.2 |  |  | IC50 [7]: 120 nM
N#CCc1ccc(-n2cnc3cnc4cc(F)c(-c5ccc(Oc6ccccn6)cc5Cl)cc4c32)cc1 |  |  |  |  | < 500 | EC50 [7]: 3000 nM; clearance [8]: 8 mL/min/kg; bioavailability [9]: 5%
COCC(=O)N1CC[C@H](n2c(C)nc3cnc4cc(F)c(-c5ccc(Oc6ncccn6)cc5Cl)cc4c32)[C@@H](F)C1 |  |  | 3.2 |  | 5000 | 
N#CCN1CCC(n2c(CO)nc3cnc4cc(F)c(-c5ccc(Oc6ccccn6)cc5Cl)cc4c32)CC1 | -4.5 | < 4 | 4.9 | < 4 |  | 
